Source: US11007237B2, “Agent for suppressing carbohydrate breakdown and absorption” (KOHAKU BIO TECHNOLOGY CO., LTD., priority 2017, dated 2021)

Tests used:
Caco-2 cells = experiment: Suppression test for glucose uptake by the intestinal epithelial-like cells (Caco-2 cells), Transwell glucose permeation; type: cell-based, human; settings: for Glucose permeability (%) (n = 3): apical side, 2 hours, control = 100
Method: (§1) The extract obtained can be examined for action to suppress α-glucosidase activity, for example, by the following method. The extract is added to human colon cancer-derived cells (hereinafter referred to as Caco-2 cells) and the cells are cultured. The cultured cells are collected. With a crude enzyme solution thereof, sucrose or maltose serving as substrate is allowed to react. The amount of glucose generated is quantified by an enzyme method using glucose oxidase. An action to inhibit glucose uptake can be examined by the following method. To Caco-2 cells differentiated into the intestinal epithelial-like, glucose and the extract were simultaneously added. The amount of glucose taken in the cells or permeated through the cells is quantified by an enzyme method using glucose oxidase.
The test herein was carried out in accordance with the method of Konishi et al. (Konishi et al., Biosci. Biotechnol. Biochem., 67(4), 856-862, 2003). In DMEM culture medium, Caco-2 cells were suspended. The suspension was added in Transwell-COL of 12 mm diameter and 0.4 μm in pore size (manufactured by Corning Incorporated) (hereinafter referred to as Transwell) in a ratio of 1.0×10^5 cells/cm^2 to seed the cells. The cells were cultured under 95% air-5% carbon dioxide gas at 37° C. for 3 weeks while exchanging the medium at intervals of 2 to 3 days.
After an intercellular electrical resistance (TER value) was confirmed to be 350 Ω·cm^2 or more by Millicell ERS-2 resistance measurement system (manufactured by Merck Millipore), the amber extract obtained in Production Example 1 was dissolved in DMSO on the apical side so as to obtain a final concentration of 0.2, 1 and 2 mg/mL, and mixed with a solution obtained by dissolving D(+)-glucose in PBS (+) in a concentration of 0.5% (hereinafter referred to as the 0.5% glucose solution) (DMSO final concentration: 1%). The resultant mixed solutions each were added in an amount of 500 μL. DMSO was added to a 0.5% glucose solution so as to obtain a DMSO final concentration of 1% and treated. This was used as a control. Phlorizin n-hydrate derived from an apple (hereinafter referred to as phlorizin) was dissolved in DMSO so as to obtain a final concentration of 1 mg/mL and mixed with the 0.5% glucose solution. The resultant DMSO solution (DMSO final concentration: 1%) was treated and used as a positive control. Further, succinic acid was subjected to a glucose permeation suppression test in the amount corresponding to that contained in the amber extract. More specifically, the content of succinic acid in the amber extract obtained in Production Example 1 was calculated by use of analysis/preparative high performance liquid chromatographic apparatus and Fourier transform infrared spectrophotometer. As a result, the content rate of succinic acid was confirmed to be 2% or less. Then, succinic acid was dissolved in DMSO so as to obtain a final concentration of 0.02, 0.05 and 0.1 mg/mL and mixed with PBS (+)(DMSO final concentration: 1%) and treated. At each basolateral side, 500 μL of PBS (+) was added. These transwells were subjected to culture carried out under 95% air −5% carbon dioxide gas at 37° C. for 2 hours. Thereafter the amount of glucose permeated on the basolateral side was quantified by use of glucose CII test Wako. The glucose permeability of the control sample was regarded as 100 and the relative changes for the samples containing a test substance were calculated. After the test, the TER value was confirmed to be 350 Ω·cm^2 or more.

maltase = experiment: Suppression test for maltase activity in Caco-2 cells; type: cell-based, human; settings: for Maltase activity (%) (n = 3): Caco-2 cells treated 7 days, control = 100
Method: as §1
(§2) The test herein was carried out with reference to the method of OGAWA et al. (N. Ogawa et al., the Journal of Nutrition, 130: 507-513, 2000).
To Dulbecco's modified eagle medium (DMEM)(manufactured by Thermo Fisher Scientific K.K.), 10% fetal bovine serum (hereinafter referred to as FBS)(manufactured by Thermo Fisher Scientific K.K.), a 1% antibacterial agent (Penicillin-Streptomycin-L-Glutamine) (manufactured by FUJIFILM Wako Pure Chemical Corporation) and a 1% non-essential amino acid mixture (MEM Non-Essential Amino Acids) (manufactured by Thermo Fisher Scientific K.K.) were added to prepare a culture solution (hereinafter referred to as DMEM culture medium). In the DMEM culture solution (medium), Caco-2 cells were suspended. The suspension was added in 24-well plates (manufactured by TPP) in a ratio of 1.0×10^4 cells/cm^2 to seed the cells. The cells were cultured under 95% air/5% carbon dioxide gas at 37° C. for 8 to 10 days until the cultured cells reached confluency while exchanging the medium at intervals of 2 to 3 days. […] More specifically, the content of succinic acid in the amber extract obtained in Production Example 1 was calculated by analysis/preparative high performance liquid chromatographic apparatus and a Fourier transform infrared spectrophotometer. […]
(§3) Cells were collected with a lysis buffer (0.1 M phosphate buffer (pH6.8), 0.5% TritonX-100), allowed to stand still on ice for 20 minutes and centrifuged (10,000×g) at 4° C. for 30 minutes, and then, the supernatant was collected. […] Thereafter, the amount of the glucose generated was quantified in accordance with an enzyme method using glucose CII test Wako (manufactured by FUJIFILM Wako Pure Chemical Corporation). The sucrase activity and maltase activity were calculated, respectively, based on the production amount of glucose.

sucrase = molecular target: T1, sucrase (Homo sapiens, UniProt P14410); experiment: Suppression test for sucrase activity in Caco-2 cells; type: cell-based
T1 construct: Cells were collected with a lysis buffer (0.1 M phosphate buffer (pH6.8), 0.5% TritonX-100); endogenous in cells; host or cells: Caco-2 cells (Triton X-100 lysate supernatant, crude enzyme)
Method: as §1, §2
To Dulbecco's modified eagle medium (DMEM)(manufactured by Thermo Fisher Scientific K.K.), 10% fetal bovine serum (hereinafter referred to as FBS)(manufactured by Thermo Fisher Scientific K.K.), a 1% antibacterial agent (Penicillin-Streptomycin-L-Glutamine) (manufactured by FUJIFILM Wako Pure Chemical Corporation) and a 1% non-essential amino acid mixture (MEM Non-Essential Amino Acids) (manufactured by Thermo Fisher Scientific K.K.) were added to prepare a culture solution (hereinafter referred to as DMEM culture medium). In the DMEM culture solution (medium), Caco-2 cells were suspended. The suspension was added in 24-well plates (manufactured by TPP) in a ratio of 1.0×10^4 cells/cm^2 to seed the cells. The cells were cultured under 95% air/5% carbon dioxide gas at 37° C. for 8 to 10 days until the cultured cells reached confluency while exchanging the medium at intervals of 2 to 3 days. After the culture supernatant was removed by suction, the amber extract (50% ethanol extract) obtained in Production Example 1 was dissolved in dimethyl sulfoxide (hereinafter referred to as DMSO) so as to obtain a final concentration of 100 and 200 μg/mL. The DMSO solutions were mixed with DMEM culture medium (DMSO final concentration: 0.25%) and each added in an amount of 500 μL. DMSO was added to DMEM culture medium so as to obtain a DMSO final concentration of 0.25% and treated. This was used as a control. […] This was used as a positive control. In addition, the suppression test for sucrase/maltase activity was carried out by using succinic acid in the corresponding amount to that contained in amber extract. More specifically, the content of succinic acid in the amber extract obtained in Production Example 1 was calculated by analysis/preparative high performance liquid chromatographic apparatus and a Fourier transform infrared spectrophotometer. […]
as §3

[1] = Caco-2 cells, succinic acid in the amount corresponding to that contained in the amber extract

T1 sequence (P14410 whole entry): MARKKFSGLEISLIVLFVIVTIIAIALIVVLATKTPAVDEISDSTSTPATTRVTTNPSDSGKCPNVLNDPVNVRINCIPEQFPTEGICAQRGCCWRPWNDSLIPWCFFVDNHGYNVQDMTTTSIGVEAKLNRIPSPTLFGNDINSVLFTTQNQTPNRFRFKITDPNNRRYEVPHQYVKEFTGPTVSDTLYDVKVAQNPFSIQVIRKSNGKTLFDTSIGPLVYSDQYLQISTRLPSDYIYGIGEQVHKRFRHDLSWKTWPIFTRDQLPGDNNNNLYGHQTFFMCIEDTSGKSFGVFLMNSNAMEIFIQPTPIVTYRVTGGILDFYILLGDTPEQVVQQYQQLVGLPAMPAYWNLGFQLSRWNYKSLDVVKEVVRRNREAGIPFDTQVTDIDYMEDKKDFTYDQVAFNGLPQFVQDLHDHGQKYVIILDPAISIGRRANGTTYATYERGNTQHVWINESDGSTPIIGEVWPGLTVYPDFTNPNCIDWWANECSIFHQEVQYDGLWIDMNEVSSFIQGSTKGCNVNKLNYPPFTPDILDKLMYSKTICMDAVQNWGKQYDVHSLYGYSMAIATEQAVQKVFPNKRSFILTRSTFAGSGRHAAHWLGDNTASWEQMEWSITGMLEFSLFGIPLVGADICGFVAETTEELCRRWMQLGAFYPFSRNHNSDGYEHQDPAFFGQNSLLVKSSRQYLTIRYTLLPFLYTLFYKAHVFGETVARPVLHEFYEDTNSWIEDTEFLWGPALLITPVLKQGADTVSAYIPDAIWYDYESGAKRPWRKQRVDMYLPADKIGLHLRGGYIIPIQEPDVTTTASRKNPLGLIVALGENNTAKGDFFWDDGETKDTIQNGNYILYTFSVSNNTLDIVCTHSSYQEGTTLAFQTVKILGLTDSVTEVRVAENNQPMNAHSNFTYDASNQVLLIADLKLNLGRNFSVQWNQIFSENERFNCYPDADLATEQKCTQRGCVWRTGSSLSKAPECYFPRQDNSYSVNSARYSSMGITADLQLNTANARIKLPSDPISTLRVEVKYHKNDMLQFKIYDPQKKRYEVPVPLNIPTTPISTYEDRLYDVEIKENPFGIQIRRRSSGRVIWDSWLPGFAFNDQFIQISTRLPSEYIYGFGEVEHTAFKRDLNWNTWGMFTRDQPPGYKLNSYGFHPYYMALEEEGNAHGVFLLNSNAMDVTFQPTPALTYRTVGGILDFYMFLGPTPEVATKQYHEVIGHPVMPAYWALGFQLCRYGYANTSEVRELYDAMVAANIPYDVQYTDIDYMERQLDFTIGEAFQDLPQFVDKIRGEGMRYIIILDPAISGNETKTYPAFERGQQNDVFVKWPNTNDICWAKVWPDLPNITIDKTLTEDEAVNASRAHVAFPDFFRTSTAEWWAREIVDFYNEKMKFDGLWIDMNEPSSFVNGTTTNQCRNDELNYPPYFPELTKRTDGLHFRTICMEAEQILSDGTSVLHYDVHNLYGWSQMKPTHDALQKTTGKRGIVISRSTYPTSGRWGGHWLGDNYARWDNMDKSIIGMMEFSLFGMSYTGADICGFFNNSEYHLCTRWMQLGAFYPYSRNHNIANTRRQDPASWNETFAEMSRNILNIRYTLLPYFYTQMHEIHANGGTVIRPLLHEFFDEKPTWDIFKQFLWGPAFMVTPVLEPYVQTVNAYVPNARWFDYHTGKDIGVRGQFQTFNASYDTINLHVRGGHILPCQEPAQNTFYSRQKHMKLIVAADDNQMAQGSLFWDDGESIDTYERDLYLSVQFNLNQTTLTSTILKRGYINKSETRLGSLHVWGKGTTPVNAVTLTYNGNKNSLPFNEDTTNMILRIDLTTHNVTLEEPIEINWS

O=C(O)CCC(=O)O [Succinic acid, succinic acid]
Glucose permeability (%) (n = 3) (Caco-2 cells; 0.02 mg/mL): 94.6 ± 1.6%
Glucose permeability (%) (n = 3) (Caco-2 cells; 0.05 mg/mL): 92.8 ± 3.2%
Glucose permeability (%) (n = 3) (Caco-2 cells; 0.1 mg/mL): 95.4 ± 2.5%
Suppression of glucose uptake / permeation in Caco-2 cells (in words) (Caco-2 cells; [1]): not confirmed
Maltase activity (%) (n = 3) (maltase; 2 μg/mL): 108.3 ± 1.5%
Maltase activity (%) (n = 3) (maltase; 5 μg/mL): 99.2 ± 1.3%
Maltase activity (%) (n = 3) (maltase; 25 μg/mL): 100.9 ± 2.1%
Action to suppress maltase activity in Caco-2 cells (in words) (maltase; [1]): not confirmed
activity at 2 µg/mL (sucrase; 2 μg/mL, Caco-2 cells treated 7 days, control = 100, read-out: Sucrase activity (%) (n = 3)): 102 ± 3%
activity at 5 µg/mL (sucrase; 5 μg/mL, Caco-2 cells treated 7 days, control = 100, read-out: Sucrase activity (%) (n = 3)): 95.4 ± 1.4%
activity at 25 µg/mL (sucrase; 25 μg/mL, Caco-2 cells treated 7 days, control = 100, read-out: Sucrase activity (%) (n = 3)): 99.2 ± 2%
Action to suppress sucrase activity in Caco-2 cells (in words) (sucrase; [1]): not confirmed

O=C(CCc1ccc(O)cc1)c1c(O)cc(O)cc1O[C@@H]1O[C@H](CO)[C@@H](O)[C@H](O)[C@H]1O [Phlorizin, Phlorizin n-hydrate]
Glucose permeability (%) (n = 3) (Caco-2 cells; 1 mg/mL, 0.5% glucose): 27.4 ± 1.8 %

C[C@H]1O[C@H](O[C@H]2[C@H](O)[C@@H](O)[C@@H](O[C@H]3[C@H](O)[C@@H](O)C(O)O[C@@H]3CO)O[C@@H]2CO)[C@H](O)[C@@H](O)[C@@H]1N[C@H]1C=C(CO)[C@@H](O)[C@H](O)[C@H]1O (some centres unmarked) [ACA, Acarbose]
activity at 100 µg/mL (sucrase; 100 μg/mL, Caco-2 cells treated 7 days, control = 100, read-out: Sucrase activity (%) (n = 3)): 90.2 ± 4.1%
